Source: US9499495B2, “Quinazolines and azaquinazolines as dual inhibitors of RAS/RAF/MEK/ERK and PI3K/AKT/PTEN/mTOR pathways” (Asana Biosciences, LLC, priority 2013, dated 2016)

Columns and labels:
pS6RP in RKO cells = assay: In Cell Western (ICW) assay, pS6RP in RKO cells; type: cell-based; conditions: Homo sapiens, 3 h treatment
Summary of the method: (§1)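 After a 3 h compound treatment at 37 °C, fixed RKO or A375 cells were probed for phospho-ERK1/2 (T202/Y204), phospho-S6RP or phospho-AKT T308 and detected with a Eu-tagged anti-rabbit antibody (ex 340/em 615 nm), with Hoechst signal as the cell-number correction. Inhibition was referenced to DMSO, and IC50 values came from sigmoidal dose-response curves.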

A375 cells = assay: XTT assay for cell viability, A375 cells; type: cell-based; conditions: Homo sapiens, A-375, 72 h
Summary of the method: (§2)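 GI50 derived by sigmoidal dose-response fitting of proliferation normalised to DMSO control (100%). Readout: A450 after 2-3 h with XTT (1 mg/ml)/PMS (25 μM), following 72 h compound treatment at 37° C., 5% CO2 of cells plated at 1000-2000 per well the previous day.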

pAKT (T308) in RKO cells = assay: In Cell Western (ICW) assay, pAKT-T308 in RKO cells; type: cell-based; conditions: Homo sapiens, 3 h treatment
Protocol: Cell lines A375, A2058 and RKO obtained from the ATCC as provided above, were grown, and after attaining ˜80% confluency were trypsinized, centrifuged and resuspended in fresh media. The cells were seeded at the specified density (20,000 to 50,000) in a 96-well format black-well clear bottom plate (Corning) and incubated overnight at 37° C. in a 5% CO2 incubator. The next day, compound dilutions of test compounds were prepared in 100% DMSO followed by dilutions in respective media. Treatment of test compounds was performed for 3 h at 37° C. in 5% CO2 incubator. Following 3 h drug treatment, the conditional media was discarded and the cells were washed once with cPBS (PBS containing 0.1% magnesium chloride hexahydrate and 0.1% anhydrous calcium chloride) and fixed with 4% paraformaldehyde in cPBS for 1 h at rt. After fixing, the cells were given three washes using cPBST (cPBS containing 0.1% Triton™ X-100 reagent) and then blocked using blocking solution (5% skimmed milk powder or 5% BSA prepared in cPBST) for 2 h at rt with shaking at 300 rpm. The cells were again washed thrice with cPBST and incubated with primary antibody phospho-p44/42 MAPK(Erk1/2)(Thr202/204) antibody (Cell Signaling, Catalog # 9101L), phospho S6 ribosomal protein (Cell Signaling, Catalog #4858L), phospho AKT (Thr 308) (Cell Signaling, Catalog #9275) or phospho AKT (Ser 473) (Cell Signaling, Catalog #4060L) in specified dilutions (1:500-1:2500), prepared in respective blocking solutions, in a racker overnight at 4° C. The next day, the cells were washed with 1× Delfia® wash buffer (4×1 wash) and incubated with secondary antibody (Delfia®-Eu-N1 labeled anti-rabbit antibody; PerkinElmer, Catalog #AD0105; dilutions: 1:2000 to 1:6000 in Delfia® assay buffer (PerkinElmer, Catalog #1244-111)) for 2 h at rt in the dark at 300 rpm. The cells were then given four washes with 1× Delfia® wash buffer and incubated with Wallac Delfia® Enhancement solution (100 μL; PerkinElmer, Catalog #1244-105) for 20 min at rt in the dark at 300 rpm. The fluorescence emission was then read at 615 nm with an excitation wavelength of 340 nm using a Victor V5 Fluorometer (Perkin Elmer, US). The cells were then washed once with 1×cPBS and incubated with 100 μL of 0.5 mg/mL of Hoechst 33258 dye prepared in cPBS and read at 460 nm with 355 nm excitation, thereby evaluating the correction factor.
The % inhibition for the test compounds of formula (I) (new chemical entities (NCEs)) was calculated keeping DMSO control as 0% and the IC50 values were determined using sigmoidal dose response curve fit in GraphPad Prism® v5 software.

RKO cells = assay: XTT assay for cell viability, RKO cells; type: cell-based; conditions: Homo sapiens, 72 h
Summary of the method: as §2

B-RAFV600E = molecular target: T1, B-RAFV600E (Homo sapiens, UniProt P15056, V600E); assay: B-RAFV600E radiometric assay; type: biochemical; conditions: read-out: Kinase assay B-Raf
T1 construct: purchased Millipore, USA 14-557
Summary of the method: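 B-RAFV600E was preincubated 45 min at rt with compound in 1% DMSO. MEK-K97M (0.5 μg), 5 μM final cold ATP and [γ-32P]ATP were then added for 2 h at rt. Phosphorylated MEK was captured on P81 paper and scintillation-counted; IC50 came from a sigmoidal dose-response fit.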

pERK in RKO cells = assay: In Cell Western (ICW) assay, pERK in RKO cells; type: cell-based; conditions: Homo sapiens, 3 h treatment
Summary of the method: as §1

T1 sequence (P15056 416-766 V600E limits assumed): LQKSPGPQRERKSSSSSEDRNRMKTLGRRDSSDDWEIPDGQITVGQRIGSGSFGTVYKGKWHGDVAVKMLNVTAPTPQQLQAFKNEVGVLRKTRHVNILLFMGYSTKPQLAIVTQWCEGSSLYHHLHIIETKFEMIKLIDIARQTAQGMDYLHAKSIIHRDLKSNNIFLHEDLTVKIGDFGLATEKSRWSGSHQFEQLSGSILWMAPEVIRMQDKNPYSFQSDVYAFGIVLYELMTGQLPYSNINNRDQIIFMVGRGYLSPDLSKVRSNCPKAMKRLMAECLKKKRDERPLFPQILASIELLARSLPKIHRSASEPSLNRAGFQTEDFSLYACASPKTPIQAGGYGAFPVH

Compound | IC50 (pS6RP in RKO cells) [nM] | IC50 (A375 cells) [nM] | IC50 (pAKT (T308) in RKO cells) [nM] | IC50 (RKO cells) [nM] | IC50 (B-RAFV600E) [nM] | IC50 (pERK in RKO cells) [nM]
COc1cc(-c2c(F)ccc(NS(=O)(=O)CCCF)c2F)cc2c(N3CCOCC3)nc(-c3ccc(N)nc3)nc12 [Example 79, N-(3-(2-(6-aminopyridin-3-yl)-8-methoxy-4-morpholinoquinazolin-6-yl)-2,4-difluorophenyl)-3-fluoropropane-1-sulfonamide] | 100 to 1000 | 1 to 100 | 100 to 1000 | 100 to 1000 | 1 to 100 | –
Nc1ncc(-c2nc(N3CCOCC3)c3nc(-c4cccc(NS(=O)(=O)CCCF)c4F)ccc3n2)cn1 [Example 87, N-(3-(2-(2-aminopyrimidin-5-yl)-4-morpholinopyrido[3,2-d]pyrimidin-6-yl)-2-fluorophenyl)-3-fluoropropane-1-sulfonamide] | 100 to 1000 | 100 to 1000 | 100 to 1000 | 100 to 1000 | 1 to 100 | –
Nc1ccc(-c2nc(N3CCOCC3)c3nc(-c4cccc(NS(=O)(=O)CCCF)c4F)ccc3n2)cn1 [Example 88, N-(3-(2-(6-aminopyridin-3-yl)-4-morpholinopyrido[3,2-d]pyrimidin-6-yl)-2-fluorophenyl)-3-fluoropropane-1-sulfonamide] | 100 to 1000 | 100 to 1000 | 100 to 1000 | 100 to 1000 | 1 to 100 | 100 to 1000
Nc1ccc(-c2nc(N3CCOCC3)c3nc(-c4cccc(NS(=O)(=O)c5cc(F)ccc5F)c4F)ccc3n2)cn1 [Example 92, N-(3-(2-(6-aminopyridin-3-yl)-4-morpholinopyrido[3,2-d]pyrimidin-6-yl)-2-fluorophenyl)-2,5-difluorobenzenesulfonamide] | – | 1 to 100 | 1000 to 10000 | 1000 to 10000 | 1 to 100 | 100 to 1000
Nc1ncc(-c2nc(N3CCOCC3)c3nc(-c4cccc(NS(=O)(=O)c5cc(F)ccc5F)c4F)ccc3n2)cn1 [Example 93, N-(3-(2-(2-aminopyrimidin 5-yl)-4-morpholinopyrido[3,2-d]pyrimidin-6-yl)-2-fluorophenyl)-2,5-difluorobenzenesulfonamide] | – | 100 to 1000 | 1000 to 10000 | 100 to 1000 | 1 to 100 | –
Nc1cc(C(F)(F)F)c(-c2nc(N3CCOCC3)c3nc(-c4cccc(NS(=O)(=O)CCCF)c4F)ccc3n2)cn1 [Example 94, N-(3-(2-(6-amino-4-(trifluoromethyl)pyridin-3-yl)-4-morpholinopyrido[3,2-d]pyrimidin-6-yl)-2-fluorophenyl)-3-fluoropropane-1-sulfonamide] | 100 to 1000 | 100 to 1000 | 100 to 1000 | 100 to 1000 | 1 to 100 | 1 to 100
Cc1cc(N)ncc1-c1nc(N2CCOCC2)c2nc(-c3cccc(NS(=O)(=O)CCCF)c3F)ccc2n1 [Example 101, N-(3-(2-(6-amino-4-methylpyrtdin-3-yl)-4-morpholinopyrldo[3,2-d]pyrimidin-6-yl)-2-fluorophenyl)-3-fluoropropane-1-sulfonamide] | 1 to 100 | 100 to 1000 | 100 to 1000 | 100 to 1000 | 1 to 100 | 100 to 1000
C[C@H]1COCCN1c1nc(-c2cnc(N)cc2C(F)(F)F)nc2ccc(-c3cccc(NS(=O)(=O)CCCF)c3F)nc12 [Example 108, (S)-N-(3-(2-(6-amino-4-(trifluoromethyl)pyrldin-3-yl)-4-(3-methylmorpholino)pyrido[3,2-d]pyrimidin-6-yl)-2-fluorophenyl)-3-fluoropropane-1-sulfonamide] | – | 100 to 1000 | 1000 to 10000 | 100 to 1000 | 1 to 100 | 100 to 1000
CNc1ccc(-c2nc(N3CCOCC3)c3nc(-c4cccc(NS(=O)(=O)CCCF)c4F)ccc3n2)cn1 [Example 113, 3-fluoro-N-(2-fluoro-3-(2-(6-(methylamino)pyridin-3-yl)-4-morpholinopyrido[3,2-d]pyrimidin-6-yl)phenyl)propane-1-sulfonamide] | – | 100 to 1000 | 1000 to 10000 | 100 to 1000 | 1 to 100 | –
